Measured values as given in US20230085307A1, “PYRIDAZINONE COMPOUND AND HERBICIDE” (NISSAN CHEMICAL CORPORATION, priority 2019, published 2023).

Experiments:
oval-leafed pondweed = experiment: Test Example 1: herbicidal activity, application before weed generation under submerged conditions (Table 16, symbol C); format: in vivo, oval-leafed pondweed (Monochoria vaginalis); details: amount of applied herbicide 320 g/ha
Procedure, shortened: (§1)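 Emulsion formulation, water-diluted to set dose, was put onto the flooded surface (4 cm depth, alluvial soil) the same day weeds were sown and 2.5-leaf rice transplanted. After 3 weeks at 25-30 °C under glass, each species was rated 0 (≤5% kill) to 5 (≥90% kill).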

late watergrass = experiment: Test Example 1: herbicidal activity, application before weed generation under submerged conditions (Table 16, symbol A); format: in vivo, late watergrass (Echinochloa oryzicola); details: amount of applied herbicide 320 g/ha
Procedure, shortened: as §1

rice flat sedge = experiment: Test Example 3: herbicidal effect by foliage application, Wagner pot (Table 18, symbol E); format: in vivo, rice flat sedge (Cyperus iria); details: 320 g/ha
Procedure, shortened: (§2)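 Plants were sown in alluvial soil held under 0.1–0.5 cm standing water and grown 14 days in a greenhouse at 25–30 °C. An emulsifiable formulation, water-diluted to the set dose, was then sprayed onto the foliage, and effects were scored three weeks later using previously defined criteria.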

persian speedwell [1] = experiment: Test Example 5: herbicidal effect by foliage application, plastic box (Table 20, symbol R); format: in vivo, Persian speedwell (Veronica persica); details: amount of applied herbicide 320 g/ha; foliage application after 14-day growth; evaluated three weeks after application
Procedure, shortened: (§3)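 Sow seeds spot-wise in sterilized diluvial soil; cover with ~1.5 cm soil. Grow 14 days in greenhouse, 25° C. to 30° C. Spray foliage with emulsion diluted to predetermined amount. Rate effect after 3 weeks.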

false cleavers = experiment: Test Example 4: herbicidal effect by soil treatment (Table 19, symbol Q); format: in vivo, false cleavers (Galium spurium); details: amount of applied herbicide 320 g/ha
Procedure, shortened: (§4)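 Soil-surface application: an emulsion agent diluted with water to the predetermined dose is sprayed uniformly over seeds lying under roughly 1.5 cm of sterilized diluvial soil. Boxes stay in a greenhouse at 25° C. to 30° C. Three weeks later, each species is graded on previously defined criteria.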

Italian ryegrass [2] = experiment: Test Example 5: herbicidal effect by foliage application, plastic box (Table 20, symbol K); format: in vivo, Italian ryegrass (Lolium multiflorum); details: amount of applied herbicide 320 g/ha; foliage application after 14-day growth; evaluated three weeks after application
Procedure, shortened: as §3

Chinese sprangletop = experiment: Test Example 3: herbicidal effect by foliage application, Wagner pot (Table 18, symbol D); format: in vivo, chinese sprangletop (Leptochloa chinensis); details: 320 g/ha
Procedure, shortened: as §2

windgrass [3] = experiment: Test Example 5: herbicidal effect by foliage application, plastic box (Table 20, symbol L); format: in vivo, windgrass (Apera spica-venti); details: amount of applied herbicide 320 g/ha; foliage application after 14-day growth; evaluated three weeks after application
Procedure, shortened: as §3

barnyard grass [4] = experiment: Test Example 4: herbicidal effect by soil treatment (Table 19, symbol H); format: in vivo, barnyard grass (Echinochloa crus-galli); details: amount of applied herbicide 320 g/ha
Procedure, shortened: as §4

velvetleaf [5] = experiment: Test Example 4: herbicidal effect by soil treatment (Table 19, symbol M); format: in vivo, velvetleaf (Abutilon theophrasti); details: amount of applied herbicide 320 g/ha
Procedure, shortened: as §4

redroot pigweed [6] = experiment: Test Example 4: herbicidal effect by soil treatment (Table 19, symbol N); format: in vivo, redroot pigweed (Amaranthus retroflexus); details: amount of applied herbicide 320 g/ha
Procedure, shortened: as §4

barnyard grass [7] = experiment: Test Example 3: herbicidal effect by foliage application, Wagner pot (Table 18, symbol H); format: in vivo, barnyard grass (Echinochloa crus-galli); details: 320 g/ha
Procedure, shortened: as §2

southern crabgrass [8] = experiment: Test Example 4: herbicidal effect by soil treatment (Table 19, symbol F); format: in vivo, southern crabgrass (Digitaria ciliaris); details: amount of applied herbicide 320 g/ha
Procedure, shortened: as §4

velvetleaf [9] = experiment: Test Example 5: herbicidal effect by foliage application, plastic box (Table 20, symbol M); format: in vivo, velvetleaf (Abutilon theophrasti); details: amount of applied herbicide 320 g/ha; foliage application after 14-day growth; evaluated three weeks after application
Procedure, shortened: as §3

lambsquarters [10] = experiment: Test Example 4: herbicidal effect by soil treatment (Table 19, symbol O); format: in vivo, lambsquarters (Chenopodium album); details: amount of applied herbicide 320 g/ha
Procedure, shortened: as §4

wild oat [11] = experiment: Test Example 4: herbicidal effect by soil treatment (Table 19, symbol I); format: in vivo, wild oat (Avena fatua); details: amount of applied herbicide 320 g/ha
Procedure, shortened: as §4

chickweed [12] = experiment: Test Example 5: herbicidal effect by foliage application, plastic box (Table 20, symbol P); format: in vivo, common chickweed (Stellaria media); details: amount of applied herbicide 320 g/ha; foliage application after 14-day growth; evaluated three weeks after application
Procedure, shortened: as §3

wild oat [13] = experiment: Test Example 5: herbicidal effect by foliage application, plastic box (Table 20, symbol I); format: in vivo, wild oat (Avena fatua); details: amount of applied herbicide 320 g/ha; foliage application after 14-day growth; evaluated three weeks after application
Procedure, shortened: as §3

redroot pigweed [14] = experiment: Test Example 5: herbicidal effect by foliage application, plastic box (Table 20, symbol N); format: in vivo, redroot pigweed (Amaranthus retroflexus); details: amount of applied herbicide 320 g/ha; foliage application after 14-day growth; evaluated three weeks after application
Procedure, shortened: as §3

Japanese bulrush = experiment: Test Example 1: herbicidal activity, application before weed generation under submerged conditions (Table 16, symbol B); format: in vivo, Japanese bulrush (Schoenoplectus juncoides); details: amount of applied herbicide 320 g/ha
Procedure, shortened: as §1

southern crabgrass [15] = experiment: Test Example 5: herbicidal effect by foliage application, plastic box (Table 20, symbol F); format: in vivo, southern crabgrass (Digitaria ciliaris); details: amount of applied herbicide 320 g/ha; foliage application after 14-day growth; evaluated three weeks after application
Procedure, shortened: as §3

green foxtail [16] = experiment: Test Example 4: herbicidal effect by soil treatment (Table 19, symbol G); format: in vivo, green foxtail (Setaria viridis); details: amount of applied herbicide 320 g/ha
Procedure, shortened: as §4

green foxtail [17] = experiment: Test Example 5: herbicidal effect by foliage application, plastic box (Table 20, symbol G); format: in vivo, green foxtail (Setaria viridis); details: amount of applied herbicide 320 g/ha; foliage application after 14-day growth; evaluated three weeks after application
Procedure, shortened: as §3

blackgrass [18] = experiment: Test Example 5: herbicidal effect by foliage application, plastic box (Table 20, symbol J); format: in vivo, blackgrass (Alopecurus myosuroides); details: amount of applied herbicide 320 g/ha; foliage application after 14-day growth; evaluated three weeks after application
Procedure, shortened: as §3

barnyard grass [19] = experiment: Test Example 5: herbicidal effect by foliage application, plastic box (Table 20, symbol H); format: in vivo, barnyard grass (Echinochloa crus-galli); details: amount of applied herbicide 320 g/ha; foliage application after 14-day growth; evaluated three weeks after application
Procedure, shortened: as §3

chickweed [20] = experiment: Test Example 4: herbicidal effect by soil treatment (Table 19, symbol P); format: in vivo, common chickweed (Stellaria media); details: amount of applied herbicide 320 g/ha
Procedure, shortened: as §4

Italian ryegrass [21] = experiment: Test Example 4: herbicidal effect by soil treatment (Table 19, symbol K); format: in vivo, Italian ryegrass (Lolium multiflorum); details: amount of applied herbicide 320 g/ha
Procedure, shortened: as §4

blackgrass [22] = experiment: Test Example 4: herbicidal effect by soil treatment (Table 19, symbol J); format: in vivo, blackgrass (Alopecurus myosuroides); details: amount of applied herbicide 320 g/ha
Procedure, shortened: as §4

windgrass [23] = experiment: Test Example 4: herbicidal effect by soil treatment (Table 19, symbol L); format: in vivo, windgrass (Apera spica-venti); details: amount of applied herbicide 320 g/ha
Procedure, shortened: as §4

lambsquarters [24] = experiment: Test Example 5: herbicidal effect by foliage application, plastic box (Table 20, symbol O); format: in vivo, lambsquarters (Chenopodium album); details: amount of applied herbicide 320 g/ha; foliage application after 14-day growth; evaluated three weeks after application
Procedure, shortened: as §3

persian speedwell [25] = experiment: Test Example 4: herbicidal effect by soil treatment (Table 19, symbol R); format: in vivo, Persian speedwell (Veronica persica); details: amount of applied herbicide 320 g/ha
Procedure, shortened: as §4

For `CCCC(=O)Oc1c(C)nn(C)c(=O)c1-c1c(-c2ccc(F)cc2OC)sc2cc(F)c(F)cc12` [5-030], the “Herbicidal effect, C: oval-leafed pondweed” value (oval-leafed pondweed) was 0 (Herbicidal rate of 5% or less (almost no effect)), the “Herbicidal effect, A: late watergrass” value (late watergrass) was 3 (Herbicidal rate of 40% or more and less than 70%) and the “herbicidal effect on rice flat sedge (E)” value (rice flat sedge) was 0 (Herbicidal rate of 5% or less (almost no effect)). For the same molecule, the “Herbicidal effect by foliage application, R: persian speedwell” value (persian speedwell [1]) was 0 (Herbicidal rate of 5% or less (almost no effect)), the “Q: false cleavers, herbicidal effect grade” value (false cleavers) was 0 (Herbicidal rate of 5% or less (almost no effect)) and the “Herbicidal effect by foliage application, K: Italian ryegrass” value (Italian ryegrass [2]) was 0 (Herbicidal rate of 5% or less (almost no effect)). For the same molecule, the “herbicidal effect on Chinese sprangletop (D)” value (Chinese sprangletop) was 0 (Herbicidal rate of 5% or less (almost no effect)), the “Herbicidal effect by foliage application, L: windgrass” value (windgrass [3]) was 5 (Herbicidal rate of 90% or more (almost completely withered)) and the “H: barnyard grass, herbicidal effect grade” value (barnyard grass [4]) was 2 (Herbicidal rate of 20% or more and less than 40%). The “M: velvetleaf, herbicidal effect grade” value (velvetleaf [5]) was 3 (Herbicidal rate of 40% or more and less than 70%), the “N: redroot pigweed, herbicidal effect grade” value (redroot pigweed [6]) was 5 (Herbicidal rate of 90% or more (almost completely withered)) and the “herbicidal effect on barnyard grass (H)” value (barnyard grass [7]) was 4 (Herbicidal rate of 70% or more and less than 90%). The “F: southern crabgrass, herbicidal effect grade” value (southern crabgrass [8]) was 1 (Herbicidal rate of 5% or more and less than 20%), the “Herbicidal effect by foliage application, M: velvetleaf” value (velvetleaf [9]) was 3 (Herbicidal rate of 40% or more and less than 70%) and the “O: lambsquarters, herbicidal effect grade” value (lambsquarters [10]) was 5 (Herbicidal rate of 90% or more (almost completely withered)). For the same molecule, the “I: wild oat, herbicidal effect grade” value (wild oat [11]) was 0 (Herbicidal rate of 5% or less (almost no effect)), the “Herbicidal effect by foliage application, P: chickweed” value (chickweed [12]) was 5 (Herbicidal rate of 90% or more (almost completely withered)) and the “Herbicidal effect by foliage application, I: wild oat” value (wild oat [13]) was 0 (Herbicidal rate of 5% or less (almost no effect)). For the same molecule, the “Herbicidal effect by foliage application, N: redroot pigweed” value (redroot pigweed [14]) was 3 (Herbicidal rate of 40% or more and less than 70%), the “Herbicidal effect, B: Japanese bulrush” value (Japanese bulrush) was 1 (Herbicidal rate of 5% or more and less than 20%) and the “Herbicidal effect by foliage application, F: southern crabgrass” value (southern crabgrass [15]) was 0 (Herbicidal rate of 5% or less (almost no effect)). The “G: green foxtail, herbicidal effect grade” value (green foxtail [16]) was 4 (Herbicidal rate of 70% or more and less than 90%), the “Herbicidal effect by foliage application, G: green foxtail” value (green foxtail [17]) was 0 (Herbicidal rate of 5% or less (almost no effect)) and the “Herbicidal effect by foliage application, J: blackgrass” value (blackgrass [18]) was 4 (Herbicidal rate of 70% or more and less than 90%). For the same molecule, the “Herbicidal effect by foliage application, H: barnyard grass” value (barnyard grass [19]) was 2 (Herbicidal rate of 20% or more and less than 40%), the “P: chickweed, herbicidal effect grade” value (chickweed [20]) was 5 (Herbicidal rate of 90% or more (almost completely withered)) and the “K: Italian ryegrass, herbicidal effect grade” value (Italian ryegrass [21]) was 0 (Herbicidal rate of 5% or less (almost no effect)). The “J: blackgrass, herbicidal effect grade” value (blackgrass [22]) was 5 (Herbicidal rate of 90% or more (almost completely withered)), the “L: windgrass, herbicidal effect grade” value (windgrass [23]) was 5 (Herbicidal rate of 90% or more (almost completely withered)) and the “Herbicidal effect by foliage application, O: lambsquarters” value (lambsquarters [24]) was 3 (Herbicidal rate of 40% or more and less than 70%). The “R: persian speedwell, herbicidal effect grade” value (persian speedwell [25]) was 5 (Herbicidal rate of 90% or more (almost completely withered)).
